Experiments:
[1] = system: γ-secretase with FAD PS1 mutations (H163R, M233L, R278I); assay: HEK cells overexpressing APPsw with FAD PS1 mutations; format: cell-based, human
Protocol: (§1) Aβ peptide levels were quantified by sandwich ELISA using anti-Aβ38, anti-Aβ40, anti-Aβ42, (BioLegend, Dedham, MA, USA) or anti-Aβ37 for the capture and 4G8-horseradish peroxidase (HRP; BioLegend) for detection. When measuring Aβ37 and Aβ38, 4G8-HRP was added to the sample for overnight incubation, whereas it was added after the overnight incubation for 1 h for Aβ40 and Aβ42 measurements.
(§2) For cell-based assays, freshly collected samples of cultured cell supernatant were added to the plates and incubated at 4 °C for about 24 h. Detection was performed using SureBlue 3,3’,5,5’-tetramethylbenzidine (TMB) peroxidase substrate (KPL, Inc., Gaithersburg, MD, USA) and the plates read on a SpectraMax M5e microplate reader (Molecular Devices, Inc., Sunnyvale, CA, USA). GSM-treated samples were normalized to samples treated with DMSO alone (100 %) and 5 μM GSI, DAPT (0 %; Sigma-Aldrich). EC50 values were calculated from values reported as percentage of DMSO using nonlinear regression, based on a sigmoidal dose–response (variable slope) model.
(§3) The extractions were performed according to the methods described by Okochi et al.. Briefly, human embryonic kidney (HEK) cells stably expressing APPsw and PS1 derivatives were cultured to confluence in 10-cm dishes and the media replaced on the day of the experiment. Cells were treated with FRM-36143 in the presence of proteasome inhibitors (1 mM lactacystin, 100 nM MG262, and 1 mM epoxomicin) for 1 h. Conditioned media were collected and cells were washed with ice-cold PBS and then immediately boiled for 2 min. A monitoring peptide (IVTL) and protease inhibitors were then added to the boiled samples, which were sonicated for 5 s three times and centrifuged at 100,000 × g for 1 h. The resultant supernatants were precipitated with TCA on ice for 15 min, centrifuged at 100,000 × g for 1 h, and filtered before being subjected to LC-MS/MS analysis to measure the tri-, tetra-, and pentapeptides as described elsewhere.

[2] = system: γ-secretase; assay: Acute oral treatment of rats, brain and CSF Aβ peptides; format: in vivo, rat
Protocol: For in vivo assessment of compound efficacy, brain tissue and cerebrospinal fluid (CSF) were collected, snap frozen in liquid nitrogen, and stored at −80 °C. Brain hemispheres were homogenized in 0.6 % diethylamine (DEA) in 50 mM NaCl containing protease inhibitor cocktail (cOmplete mini, EDTA-free, Roche) using sonication (Branson) at 23 % amplitude for 30 s. Homogenates were spun at 227,000 × g for 25 min at 4 °C. Supernatants were diluted fivefold in PBS-T (0.05 % Tween-20) containing 0.67 % BSA and added to the ELISA plate. For CSF, samples were diluted threefold in the PBS-T/BSA buffer. Detection was performed using the SuperSignal™ ELISA Femto substrate (Thermo Fisher), and luminescence was read on an EnVision plate reader (Perkin Elmer).
(§4) Mice and rats were maintained on 12/12 h light/dark cycle with food available ad libitum. Drug treatment was prepared in a vehicle of 1 % carboxymethylcellulose (CMC):Tween80 (99.5:0.5). Twelve-week-old wild-type male mice (129S6, Taconic Biosciences, Hudson, NY, USA) or rats (Wistar, Charles River Laboratories) were administered compound p.o. without prior fasting and euthanized by CO2 asphyxiation at specified times post-dosing. After extraction of the brain, the olfactory bulb and hindbrain were removed and the cerebral hemispheres separated (mice) or cut in 4 pieces (rats). The cerebellum was removed for bioanalysis of the compound. CSF was collected from the cisterna magna and blood from a cardiac puncture.

[3] = system: γ-secretase; assay: Population PK/PD modeling of mouse brain Aβ42 reduction; format: in vivo; conditions: population PK/PD model, mice
Protocol: as §4
A population pharmacokinetic/pharmacodynamic (PK/PD) analysis was performed to obtain maximal efficacy (Emax) and concentration leading to 50 % of Emax (EC50) using the Phoenix® NLME™ (NonLinear Mixed Effect) program (version 6.3, Certara USA, Inc., St. Louis, MO). The goodness of fit was assessed based on visual inspection of curve fitting, Akaike’s information criterion (AIC), and precision of parameter estimation.

[4] = biological target: T1, γ-secretase (Homo sapiens, UniProt P49768); assay: Aβ in media and intracellular small peptides of HEK cells expressing APPsw and WT presenilin; format: cell-based; conditions: HEK APPsw, 1 μM
T1 construct: expressed in transfected cells; host or cells: HEK cells stably expressing APPsw and WT PS1
Protocol: as §1, §2
as §3, with “Cells were treated with FRM-36143 in the presence of proteasome inhibitors (1 mM lactacystin, 100 nM MG262, and 1 mM epoxomicin) for 1 h.” left out

[5] = system: γ-secretase; assay: Aβ42 ELISA in mouse primary cortical neurons; format: cell-based; conditions: overnight
Protocol: Primary cultures were established from the neocortex of E17 CD1 mouse embryos (Charles River Laboratories, Wilmington, MA, USA). Following tissue dissection and trituration, the cultures were suspended in Neurobasal® medium (Invitrogen, Carlsbad, CA, USA) supplemented with 10 % horse serum (Sigma-Aldrich, St. Louis, MO, USA) and 520 μM L-glutamine. Cells were plated at 50,000 cells/well in 96-well poly-D-lysine-coated plates. Following incubation at 37 °C and 5 % CO2 for 4 h, the plating medium was exchanged with Neurobasal® medium supplemented with 2 % B-27® (Invitrogen), 520 μM of L-glutamine, and 1 % penicillin–streptomycin. […]
Aβ peptide levels were quantified by sandwich ELISA using anti-Aβ38, anti-Aβ40, anti-Aβ42, (BioLegend, Dedham, MA, USA) or anti-Aβ37 for the capture and 4G8-horseradish peroxidase (HRP; BioLegend) for detection. […]
as §2, with “GSM-treated samples were normalized to samples treated with DMSO alone (100 %) and 5 μM GSI, DAPT (0 %; Sigma-Aldrich).” left out

[6] = rats, 30 mg/kg p.o., 6 h post-dose

- EC50 ([3]; 30 mg/kg, unbound plasma concentration, 2.5–97.5 % CI 4.6–151 nM, read-out: In vivo EC50 for Aβ42): 78 nM
- Aβ42 concentration in the media ([4]; 2 h, DMSO 154 ± 2): 105 ± 2 pM
- Aβ38 concentration in the media ([4]; 2 h, DMSO 750 ± 62): 1548 ± 39 pM
- Aβ40 concentration in the media ([4]; 2 h, DMSO 4021 ± 132): 3477 ± 120 pM
- Aβtotal concentration in the media (Aβ38 + Aβ40 + Aβ42) ([4]; 2 h, DMSO 4925 ± 185): 5130 ± 92 pM
- EC50 [5]: 53 nM
SMILES: COc1nc(C2=NOC[C@H](c3cc4ccccc4o3)N2)ccc1-n1cnc(C)c1 [FRM-36143, (R)-5-(benzofuran-2-yl)-3-(6-methoxy-5-(4-methyl-1H-imidazol-1-yl)pyridin-2-yl)-5,6-dihydro-4H-1,2,4-oxadiazine]
- Reversal of the effect of FAD PS1 mutations on APP processing ([1]; HEK APPsw with PS1 H163R, M233L or R278I, Aβ42:Aβ40, Aβ38:Aβ42, VVIA/VVIAT): able to reverse the effect of the mutations studied
- Aβ38:Aβ42 ratio (fourth cleavage step) ([1]; PS1 R278I mutant): significant increase
- Aβ42:Aβ40 ratio ([1]; PS1 R278I mutant): remains unchanged
- Aβ42 reduced to % of the baseline in rat cerebrospinal fluid ([2]; rat CSF): 58%
- Brain Aβ37 increase vs vehicle [2, 6]: 2.5 fold
- Brain Aβ42 reduction vs vehicle [2, 6]: 30%
- CSF Aβ42 reduction vs vehicle [2, 6]: 58%
- CSF Aβ37 increase vs vehicle ([2]; rats, 30 mg/kg p.o., 6 h post-dose, vehicle values close to detection limit): 20 fold
- Maximal brain Aβ42 reduction (Emax) ([3]; 30 mg/kg data): 51%
- Emax for effect on brain Aβ42 ([3]; 30 mg/kg data only, CV: 15 %): 0.51
- Intracellular production of small peptides VVIA and VVIAT (fourth cleavage step) ([4]; LC-MS/MS): increases the production of VVIA and VVIAT
